Experimental data as given in PMC8709211, “Improving Membrane Activity and Cargo Delivery Efficacy of a Cell-Penetrating Peptide by Loading with Carboranes” (Pharmaceutics, 2021).

How the values were obtained:
[1] = tested on: HeLa cells; test: Cellular uptake by flow cytometry; assay type: cell-based; conditions: 1 µM CF-labeled peptide, serum-free medium, 30 min, 37 °C, triplicate, n = 3
Procedure: HeLa cells were seeded onto 24-well plates (Sarstedt, Nümbrecht, Germany, 100,000 cells per well, respectively). After reaching 80–90% confluency, medium was removed, and cells were incubated with 1 µM CF-labeled peptide solution in serum-free medium for either 30 min or 2 h at 37 °C. The peptide solution was removed, cells were washed twice with PBS, and trypsinized for 5 min. Detached cells were resuspended in full medium (phenol red free) and afterwards analyzed using a guava easycyte HT flow cytometer (Merck, Darmstadt, Germany).

[2] = CF-leakage assay, negatively charged LUVs; conditions: 1 µM peptide, 25 °C, 90 min; fluorescence, normalized to Triton x-100; duplicate, n = 2
Procedure: (§1) Large unilamellar vesicles (LUVs) were prepared by dissolving different lipids in CHCl3, to reach the desired compositions (lipids were purchased from Avanti Polar Lipids, Inc., Alabaster, AL, USA). To remove the solvent, the mixture was placed into a round-bottomed flask on ice and the solvent was evaporated under reduced pressure for 20 min at 40 °C and afterwards under vacuum for another 5 min. The dried lipid film was then hydrated with HKS buffer (25 mM HEPES, 150 mM KCl, pH 7.4, 10% sucrose (w/v)), supplemented with 100 mM 5(6)-carboxyfluorescein (CF), and homogenized for 5 min at 45 °C to form liposomes (final concentration: 8 mM). The resulting multilamellar vesicle dispersion underwent 10 freeze/thawing cycles and was passed 21 times through a mini extruder (0.4 µm polycarbonate treck-etch membrane; Avanti Polar Lipids, Inc., Alabaster, AL, USA). External CF was removed by size exclusion chromatography (PD10 column, GE Healthcare, Chicago, IL, USA). Peptides were added to the LUVs and the CF release was monitored by measuring the increased fluorescence intensity on a plate reader (Biotek, Winooski, VT, USA). […]
(§2) Our results thus far inspired us to investigate how the novel CB-conjugates would perform in a lipid environment. […] Both lipid systems were additionally loaded with CF in order to monitor membrane leakage via fluorescence dye outflow.

[3] = Circular dichroism spectroscopy (alpha-helical content, R-value); assay type: physicochemical; conditions: for % of alpha helix, 50% TFE / % of alpha helix, Phosphate Buffer: CD, calculated per ref 31; for % of alpha helix, 50% TFE: 20 µM peptide in 10 mM phosphate buffer (pH 7.0) with 50% TFE (v/v); for % of alpha helix, Phosphate Buffer / R-value, Phosphate Buffer: 20 µM peptide in 10 mM phosphate buffer (pH 7.0); for R-value, Phosphate Buffer / R-value, 50% TFE: ratio between the molar ellipticity values at 222 and 208 nm; for R-value, 50% TFE: 20 µM peptide in 10 mM phosphate buffer (pH 7.0) with 50% TFE
Procedure: Conjugates were dissolved in 10 mM phosphate buffer (pH 7.0), either alone or supplemented with 50% TFE (v/v), to a final concentration of 20 µM. CD spectra of all conjugates were recorded from 180–260 nm (0.5 nm intervals) on a J-715 spectropolarimeter (JASCO, Pfungstadt, Germany) in an N2 atmosphere.
To find out more, we performed CD spectroscopy for all peptides solved either in phosphate buffer or in phosphate buffer supplemented with trifluoroethanol (TFE), respectively. All conjugates and sC18 adopted an alpha-helix, when present in phosphate buffer with TFE (Figure S20). On the other hand, when CB-conjugates were solved in phosphate buffer only (Figure 1C), some of them directly formed distinct secondary structures. […] Taking this observation into account, we concluded that the number of CB moieties actually promoted the formation of alpha-helical structures. This effect might be further explained by the helical wheel projection of each conjugate showing that the hydrophobic face of the peptide was clearly enlarged when three or more CB units were attached (see Figure S21). […]

[4] = CF-leakage assay, zwitterionic LUVs; conditions: 1 µM peptide, 25 °C, 90 min; fluorescence, normalized to Triton x-100; duplicate, n = 2
Procedure: as §1, §2

[5] = Critical micelle concentration (CMC) determination by UV-VIS; assay type: physicochemical; conditions: peptide in water, 1–200 µM; UV absorbance at 255 nm plotted against logarithm of peptide concentration, intersection point of two lines
Procedure: Peptide conjugates were dissolved in water and different concentrations (1–200 µM) were prepared. UV-VIS spectra ranging from 200–700 nm were recorded using a 1 cm path length quartz cuvette in a Spectroquant Pharo 300 photometer (Merck, Darmstadt, Germany). The absorbance at 255 nm was plotted against the logarithm of the peptide concentration. The intersection point of two lines was determined as CMC.
Since this effect was obviously dependent on the hydrophobic nature of the conjugates, we were then interested in whether they would also self-assemble and form nanostructures, such as micelles or fibrils. An easy to apply and fast method makes use of changes in spectroscopic properties associated with micelle formation. For this, one measures the UV absorbance at a specific wavelength as a function of the concentration. Because aggregates like micelles and free molecule species contribute to a different extent to the absorbed UV light, an abrupt change of the slope occurs above a certain point. The corresponding concentration is defined as the critical micelle concentration (CMC). We measured the UV-VIS spectra of all CB-sC18 conjugates and observed for all an additional concentration-dependent maximum at 255 nm (Figure 1A,B and Table 2), whereas this maximum was not detected for meta-carborane-1-carboxylic acid (Figure S14) or sC18 alone (Figure S15).
Thus, we hypothesized this maximum as evidence for a possible self-assembly, and by plotting the absorbance at 255 nm against the logarithm of the peptide concentration, we assigned the intersection point as CMC.

[6] = tested on: human red blood cells; test: Hemolysis assay; assay type: cell-based; conditions: human RBCs 5% (v/v in PBS), 37 °C, up to 25 µM peptide, absorption at 560 nm, normalized to Triton-x-100 control, triplicate, n = 2
Procedure: Human red blood cells were washed five times with PBS (4 °C, 3000× g, 5 min) and diluted to 5% (v/v in PBS). In total, 100 µL of this solution were transferred into a fresh 96-well plate. In total, 50 µL of peptide solution were added and gently resuspended. Red blood cells were incubated for either 1 or 24 h at 37 °C and 5% CO2, respectively. In total, 50 µL of 10% Triton-x-100 were added 10 min prior to the end of the incubation time and served as a positive control. After incubation, cells were centrifuged (r.t., 2500× g, 3 min). The supernatant was carefully transferred into a fresh 96-well plate and the absorption at 560 nm was measured on a Tecan infinite M200 plate reader (Tecan Group AG, Männedorf, Switzerland). The measured absorption referred to the hemoglobin concentration.
Next, we incubated human red blood cells (RBCs) with different concentrations of CB-sC18 conjugates at 37 °C for 1 or 24 h, respectively. Since their cell membranes are mainly composed of neutral lipids, RBCs serve as an excellent biological model for the lytic activity of a peptide. […] For sC18, this agreed with the detected low activity when in contact with zwitterionic LUVs. […] The same activity profile was observed when incubating peptide conjugates with RBCs for only one hour (Figure S30), whereas the effects started at concentrations higher than 5 µM. […]

[7] = tested on: HeLa cells; test: Cell viability assay (resazurin); assay type: cell-based; conditions: 37 °C, serum-free medium, 125 nM–100 µM, relative to untreated cells
Procedure: In total, 17.000 HeLa cells per well were seeded onto 96-well plates (Sarstedt, Nümbrecht, Germany). After confluency of 80–90% was reached, the growth medium was removed, and cells were incubated with 100 µL of peptide solution of different concentrations (125 nM–100 μM in serum-free medium) for 24 h at 37 °C. For a positive control, cells were treated with 70% EtOH for 10 min. Cells were washed with serum-free medium and incubated with 10% (v/v) resazurin (Sigma-Aldrich, Merck group: Darmstadt, Germany) in serum-free medium for 1.5 h at 37 °C. Cell viability was determined by measurement of the resorufin product at 595 nm (λex = 550 nm) on a Tecan infinite M200 plate reader (Tecan Group AG, Männedorf, Switzerland). Viability was calculated from the fluorescence values of treated cells in relation to untreated cells.

Row | Substance | Cellular uptake into HeLa cells, 30 min [1] | % of alpha helix, 50% TFE [3] | % of alpha helix, Phosphate Buffer [3] | R-value, Phosphate Buffer [3] | R-value, 50% TFE [3] | CMC [5] | CF release (leakage) from negatively charged LUVs [2] | CF release (leakage) from zwitterionic LUVs [4] | Hemolytic activity towards RBCs, 24 h [6] | Cytotoxicity towards HeLa cells, 24 h [7]
1 | KK-GLRKRLRKFRNKIKEK [CB2-sC18, sC18 conjugate bearing two meta-carborane clusters] | – | 60.49% | 5.45% | – | 0.89 | – | – | – | able to lyse RBCs | –
2 | KKK-GLRKRLRKFRNKIKEK [CB3-sC18, sC18 conjugate bearing three meta-carborane clusters] | – | 56.10% | 16.68% | 0.56 | 0.88 | 44.46 ± 1.14 µM | – | – | – | –
3 | KKK‐LLIILRRRIRKQAHAHSK [CB3-pVEC, pVEC conjugate bearing three meta-carborane clusters] | – | 65.76% | 16.98% | 0.99 | 0.82 | – | – | – | – | –
4 | KK‐LLIILRRRIRKQAHAHSK [CB2-pVEC, pVEC conjugate bearing two meta-carborane clusters] | – | 51.36% | 20.41% | 0.84 | 0.82 | – | – | – | – | –
5 | K‐LLIILRRRIRKQAHAHSK [CB1-pVEC, pVEC conjugate bearing one meta-carborane cluster] | – | 44.28% | 17.72% | 0.57 | 0.82 | – | – | – | – | –
6 | meta-carborane-1-carboxylic acid [reference compound] | – | – | – | – | – | – | – | – | – | nearly no cytotoxicity

Second part, led by results:

Row | Cellular uptake into HeLa cells, 30 min [1] | % of alpha helix, 50% TFE [3] | % of alpha helix, Phosphate Buffer [3] | R-value, Phosphate Buffer [3] | R-value, 50% TFE [3] | CMC [5] | Substance | CF release (leakage) from negatively charged LUVs [2] | CF release (leakage) from zwitterionic LUVs [4] | Hemolytic activity towards RBCs, 24 h [6] | Cytotoxicity towards HeLa cells, 24 h [7]
7 | decreased again | 50.15% | 21.09% | 0.87 | 0.92 | 44.37 ± 1.16 µM | CB-KKKK-GLRKRLRKFRNKIKEK [CB5-sC18, sC18 conjugate bearing five meta-carborane clusters] | increased outflow of CF | same leakage profile as CB1-sC18 | – | –
8 | – | 45.48% | 22.96% | 0.79 | 0.79 | – | CB‐KKKK‐LLIILRRRIRKQAHAHSK [CB5-pVEC, pVEC conjugate bearing five meta-carborane clusters] | – | – | – | –
9 | – | 59.84% | 22.59% | 0.92 | 0.84 | – | KKKK‐LLIILRRRIRKQAHAHSK [CB4-pVEC, pVEC conjugate bearing four meta-carborane clusters] | – | – | – | –
10 | – | 48.60% | 12.18% | 0.37 | 0.73 | – | LLIILRRRIRKQAHAHSK [pVEC, VE-cadherin-derived cell-penetrating peptide, reference compound] | – | – | – | –
